Where two headings read alike, the source gives them in different places.
How the values were obtained:
[1] = target: SARS-CoV2 Mpro (Severe acute respiratory syndrome coronavirus 2, UniProt P0DTD1); assay: SARS-CoV2 Mpro enzymatic assay; assay type: biochemical; conditions: 25 nM Mpro, 25 μM substrate
[2] = target: T1, 229E Mpro (Human coronavirus 229E, UniProt P0C6X1); assay: 229E Mpro assay (Table 3); assay type: biochemical, HCoV 229E
T1 construct: 229E Mpro
T1 sequence (P0C6X1 2966-3267): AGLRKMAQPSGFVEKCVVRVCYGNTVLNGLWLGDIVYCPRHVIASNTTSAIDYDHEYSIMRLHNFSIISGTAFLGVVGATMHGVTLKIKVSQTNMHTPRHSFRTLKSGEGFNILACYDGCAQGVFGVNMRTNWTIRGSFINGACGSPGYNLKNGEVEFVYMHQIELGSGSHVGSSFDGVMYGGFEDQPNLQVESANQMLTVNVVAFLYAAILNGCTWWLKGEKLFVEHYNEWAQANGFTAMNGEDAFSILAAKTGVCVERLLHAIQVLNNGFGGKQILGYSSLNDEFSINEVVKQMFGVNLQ
Procedure: Compounds are assayed using standard methods to assess compound activity and IC50. […] The assay buffer contains 20 mM of Tris-HCl (pH 7.3), 100 mM of NaCl, 1 mM of EDTA, 5 mM of TCEP and 0.1% BSA.

Work on `CC(C)(C)[C@H](NC(=O)C(F)(F)F)C(=O)N1CC2(CCC2)CC1C(=O)N[C@H](C#N)C[C@@H]1CC2(CC2)NC1=O` (stereo partly drawn) [Compound 3039b] yielded an IC50 [1] of under 2000 nM and an EC50 ([2]; 229E Mpro EC50) of under 2000 nM.
For `CC(C)(C)[C@H](NC(=O)C(F)(F)F)C(=O)N[C@@H](CC1CC1(F)F)C(=O)N[C@H](C#N)C[C@@H]1CC2(CC2)NC1=O` (stereo partly drawn) [Compound 3045], the IC50 [1] was under 2000 nM and the EC50 ([2]; 229E Mpro EC50) was under 2000 nM.
For `N#C[C@H](C[C@@H]1CCNC1=O)NC(=O)[C@@H]1CS[C@H]2CC[C@H](NCC(F)(F)F)C(=O)N21` [Compound 455, (3R,6S,8aS)-N-[(1S)-1-cyano-2-[(3S)-2-oxopyrrolidin-3-yl]ethyl]-5-oxo-6-(2,2,2-trifluoroethylamino)-2,3,6,7,8,8a-hexahydrothiazolo[3,2-a]pyridine-3-carboxamide], the EC50 ([2]; read-out: 229E Mpro EC50) was over 30000 nM.
`CC1(C)C[C@@H](C[C@@H](C#N)NC(=O)[C@@H]2[C@@H]3[C@H](CN2C(=O)[C@@H](NC(=O)C(F)(F)F)C(C)(C)C)C3(C)C)C(=O)N1` (single isomer, unassigned) [3075 (Isomer 1)] gave an IC50 [1] of under 2000 nM and an EC50 ([2]; 229E Mpro EC50) of over 30000 nM.
In the case of `CN(C(=O)[C@@H](NC(=O)C(F)(F)F)C(C)(C)C)[C@@H](CC1CC1)C(=O)N[C@H](C#N)C[C@@H]1CCCNC1=O` [Compound 3131], the IC50 [1] is reported as under 2000 nM and the EC50 ([2]; 229E Mpro EC50) is reported as 10000 to 30000 nM.
`CC1(C)C[C@@H](C[C@@H](C#N)NC(=O)C2CC3(CCC3)CN2C(=O)[C@@H](NC(=O)C(F)(F)F)C(C)(C)C)C(=O)N1` (single isomer, unassigned) [3071a (Isomer 2)] was tested, and the IC50 [1] was over 30000 nM and the EC50 ([2]; 229E Mpro EC50) was over 30000 nM.
For `N#CC(CC1CCNC1=O)NC(=O)C1CCc2ccc(NCC(=O)Oc3ccccc3)c(=O)n21` (single isomer, unassigned) [483 (Isomer 2)], the EC50 ([2]; 229E Mpro EC50) was over 30000 nM.
For `COc1cccc2[nH]c(C(=O)N[C@@H](CC3CC3)C(=O)N[C@H](C#N)C[C@@H]3CCCNC3=O)cc12` (single isomer, unassigned) [271A (Isomer 1)], the EC50 ([2]; read-out: 229E Mpro EC50) was over 30000 nM.
Work on `CC(C)(C)[C@H](NC(=O)C(F)(F)F)C(=O)N1CC2(CCCCC2)C[C@H]1C(=O)N[C@H](C#N)C[C@@H]1CC2(CC2)NC1=O` [Compound 3041] yielded an IC50 [1] of under 2000 nM and an EC50 ([2]; 229E Mpro EC50) of under 2000 nM.
`COc1cccc2[nH]c(C(=O)N3C[C@H]4CC[C@H]4[C@@H]3C(=O)N[C@H](C#N)C[C@@H]3CCNC3=O)cc12` (single isomer, unassigned) [547 (Isomer 2)] showed an EC50 ([2]; read-out: 229E Mpro EC50) of under 2000 nM.
Work on `CC1(C)C[C@@H](C[C@@H](C#N)NC(=O)[C@@H]2[C@@H]3[C@H](CN2C(=O)[C@@H](NC(=O)C(F)(F)F)C(C)(C)C)C3(C)C)C(=O)N1` (single isomer, unassigned) [3075 (Isomer 2)] yielded an IC50 [1] of under 2000 nM and an EC50 ([2]; 229E Mpro EC50) of 10000 to 30000 nM.
`CC(C)(C)[C@H](NC(=O)C(F)(F)F)C(=O)N1C[Si](C)(C)C[C@H]1C(=O)N[C@H](C#N)C[C@@H]1CC2(CC2)NC1=O` [Compound 3135] showed an IC50 [1] of under 2000 nM and an EC50 ([2]; read-out: 229E Mpro EC50) of under 2000 nM.
Molecule `CC(C)(C)[C@H](NC(=O)C(F)(F)F)C(=O)N1C[C@H]2[C@@H]([C@H]1C(=O)N[C@H](C#N)C[C@@H]1CC3(CC3)NC1=O)C2(C)C` [Compound 3043] has an IC50 [1] of under 2000 nM and an EC50 ([2]; 229E Mpro EC50) of under 2000 nM.
For `Cc1ccn([C@H](CC2CC2)C(=O)N[C@H](C#N)C[C@@H]2CCNC2=O)c(=O)c1NC(=O)OC(C)(C)C` (single isomer, unassigned) [591 (Isomer 1)], the EC50 ([2]; read-out: 229E Mpro EC50) was over 30000 nM.
Molecule `COc1cccc2[nH]c(C(=O)N3CC4(CCC4)CC3C(=O)N[C@H](C#N)C[C@@H]3CCNC3=O)cc12` (single isomer, unassigned) [399A (Isomer 2)] has an EC50 ([2]; read-out: 229E Mpro EC50) of 10000 to 30000 nM.
Molecule `COc1cccc2[nH]c(C(=O)N[C@H](CC3CC3)C(=O)N[C@H](C#N)C[C@@H]3CCCNC3=O)cc12` (single isomer, unassigned; isomer 2) [491A (Isomer 2)] has an EC50 ([2]; read-out: 229E Mpro EC50) of under 2000 nM.
Work on `CC(C)(C)[C@H](NC(=O)C(F)(F)F)C(=O)N1CC2(CCC2)CC1C(=O)N[C@H](C#N)C[C@@H]1CC2(CC2)NC1=O` (single isomer, unassigned) [3039a (Isomer 1)] yielded an IC50 [1] of under 2000 nM and an EC50 ([2]; 229E Mpro EC50) of 2000 to 10000 nM.
`CC1(C)C[C@@H](C[C@@H](C#N)NC(=O)[C@@H]2[C@@H]3[C@H](CN2C(=O)[C@@H](NC(=O)C(F)(F)F)C(C)(C)C)C3(C)C)C(=O)N1` [Compound 3075, (1R,2S,5S)-N-((S)-1-cyano-2-((R)-5,5-dimethyl-2-oxopyrrolidin-3-yl)ethyl)-3-((S)-3,3-dimethyl-2-(2,2,2-trifluoroacetamido)butanoyl)-6,6-dimethyl-3-azabicyclo[3.1.0]hexane-2-carboxamide] was tested, and the IC50 [1] was under 2000 nM and the EC50 ([2]; 229E Mpro EC50) was 10000 to 30000 nM.
Molecule `CC1(C)C[C@@H](C[C@@H](C#N)NC(=O)[C@H](CC2CC2)NC(=O)[C@@H](NC(=O)C(F)(F)F)C(C)(C)C)C(=O)N1` [Compound 3065, (S)-N-((S)-1-(((S)-1-cyano-2-((R)-5,5-dimethyl-2-oxopyrrolidin-3-yl)ethyl)amino)-3-cyclopropyl-1-oxopropan-2-yl)-3,3-dimethyl-2-(2,2,2-trifluoroacetamido)butanamide] has an IC50 [1] of under 2000 nM and an EC50 ([2]; 229E Mpro EC50) of over 30000 nM.
In the case of `CC(C)(C)C[C@H](NC(=O)[C@@H](NC(=O)C(F)(F)F)C(C)(C)C)C(=O)N[C@H](C#N)C[C@@H]1CCCNC1=O` [Compound 3129, (S)-N-((S)-1-cyano-2-((S)-2-oxopiperidin-3-yl)ethyl)-2-((S)-3,3-dimethyl-2-(2,2,2-trifluoroacetamido)butanamido)-4,4-dimethylpentanamide], the IC50 [1] is reported as under 2000 nM and the EC50 ([2]; 229E Mpro EC50) is reported as under 2000 nM.
With `COc1cccc2[nH]c(C(=O)N[C@@H](CC3CC3)C(=O)N[C@H](C#N)C[C@@H]3CCCNC3=O)cc12` (single isomer, unassigned) [491A (Isomer 1)] the EC50 ([2]; 229E Mpro EC50) was over 30000 nM.
`CC(C)(C)C[C@H](NC(=O)[C@@H](NC(=O)C(F)(F)F)C(C)(C)C)C(=O)N[C@H](C#N)C[C@@H]1CC2(CC2)NC1=O` [Compound 3037] gave an IC50 [1] of under 2000 nM and an EC50 ([2]; 229E Mpro EC50) of under 2000 nM.
`Cc1ccn([C@H](CC2CC2)C(=O)N[C@H](C#N)C[C@@H]2CCNC2=O)c(=O)c1NCC(F)(F)F` (single isomer, unassigned) [451 (Isomer 1)] gave an EC50 ([2]; read-out: 229E Mpro EC50) of over 30000 nM.
In the case of `COc1cc(Cl)c2[nH]c(C(=O)N3CC4(CCCCC4)CC3C(=O)N[C@H](C#N)C[C@@H]3CCNC3=O)cc2c1` (single isomer, unassigned) [896 (Isomer 2)], the IC50 [1] is reported as over 30000 nM and the EC50 ([2]; read-out: 229E Mpro EC50) is reported as over 30000 nM.
With `CC(C)(C)[C@H](NC(=O)C(F)(F)F)C(=O)N1C[C@H]2[C@@H]([C@H]1C(=O)N[C@H](C#N)C[C@@H]1CCCNC1=O)C2(C)C` [Compound 3133, (1R,2S,5S)-N-[(1S)-1-cyano-2-[(3S)-2-oxo-3-piperidyl]ethyl]-3-[(2S)-3,3-dimethyl-2-[(2,2,2-trifluoroacetyl)amino]butanoyl]-6,6-dimethyl-3-azabicyclo[3.1.0]hexane-2-carboxamide] the IC50 [1] was under 2000 nM and the EC50 ([2]; 229E Mpro EC50) was under 2000 nM.
With `COc1cccc2[nH]c(C(=O)N3C[C@H](C4CCCCC4)C[C@H]3C(=O)N[C@H](C#N)C[C@@H]3CCNC3=O)cc12` [Compound 167, (2S,4S)-N-((S)-1-cyano-2-((S)-2-oxopyrrolidin-3-yl)ethyl)-4-cyclohexyl-1-(4-methoxy-1H-indole-2-carbonyl)pyrrolidine-2-carboxamide] the EC50 ([2]; read-out: 229E Mpro EC50) was 2000 to 10000 nM.
Molecule `CC1(C)CC(C[C@@H](C#N)NC(=O)[C@H](CC2CC2)NC(=O)c2cc3cccc(Cl)c3[nH]2)C(=O)N1` (single isomer, unassigned) [1053 (Isomer 2)] has an EC50 ([2]; read-out: 229E Mpro EC50) of 10000 to 30000 nM.
In the case of `CC(C)(C)C[C@H](NC(=O)[C@@H](NC(=O)C(F)(F)F)C(C)(C)C)C(=O)N[C@H](C#N)C[C@@H]1CC(C)(C)NC1=O` [Compound 3069, (S)-N-((S)-1-cyano-2-((R)-5,5-dimethyl-2-oxopyrrolidin-3-yl)ethyl)-2-((S)-3,3-dimethyl-2-(2,2,2-trifluoroacetamido)butanamido)-4,4-dimethylpentanamide], the IC50 [1] is reported as under 2000 nM and the EC50 ([2]; 229E Mpro EC50) is reported as over 30000 nM.
For `COc1cccc2[nH]c(C(=O)N3CC4(CCCCC4)CC3C(=O)N[C@H](C#N)C[C@@H]3CCCNC3=O)cc12` (single isomer, unassigned) [603a (Isomer 2)], the EC50 ([2]; read-out: 229E Mpro EC50) was over 30000 nM.
`N#C[C@H](C[C@@H]1CCNC1=O)NC(=O)[C@@H]1CCc2ccc(NCC(=O)O)c(=O)n21` [Compound 501, 2-[[(3S)-3-[[(1S)-1-cyano-2-[(3S)-2-oxopyrrolidin-3-yl]ethyl]carbamoyl]-5-oxo-2,3-dihydro-1H-indolizin-6-yl]amino]acetic acid] gave an EC50 ([2]; read-out: 229E Mpro EC50) of over 30000 nM.
Work on `CC1(C)C[C@@H](C[C@@H](C#N)NC(=O)[C@@H]2CC3(CCCCC3)CN2C(=O)[C@@H](NC(=O)C(F)(F)F)C(C)(C)C)C(=O)N1` [Compound 3073, (3S)-N-[(1S)-1-cyano-2-[(3R)-5,5-dimethyl-2-oxo-pyrrolidin-3-yl]ethyl]-2-[(2S)-3,3-dimethyl-2-[(2,2,2-trifluoroacetyl)amino]butanoyl]-2-azaspiro[4.5]decane-3-carboxamide] yielded an IC50 [1] of under 2000 nM and an EC50 ([2]; 229E Mpro EC50) of 2000 to 10000 nM.
Molecule `COc1cc(Cl)c2[nH]c(C(=O)N3CC4(CCCCC4)CC3C(=O)N[C@H](C#N)C[C@@H]3CCNC3=O)cc2c1` (single isomer, unassigned) [896 (Isomer 1)] has an IC50 [1] of under 2000 nM and an EC50 ([2]; read-out: 229E Mpro EC50) of under 2000 nM.
For `CC1(C)C[C@@H](C[C@@H](C#N)NC(=O)C2CC3(CCC3)CN2C(=O)[C@@H](NC(=O)C(F)(F)F)C(C)(C)C)C(=O)N1` (single isomer, unassigned) [3071a (Isomer 1)], the IC50 [1] was under 2000 nM and the EC50 ([2]; 229E Mpro EC50) was 2000 to 10000 nM.
Molecule `Cc1ccn(C(CC2CC2)C(=O)N[C@H](C#N)C[C@@H]2CCNC2=O)c(=O)c1NCC(F)(F)F` (single isomer, unassigned) [451 (Isomer 2)] has an EC50 ([2]; 229E Mpro EC50) of 10000 to 30000 nM.

Source: patent US20230212152A1, “INHIBITORS OF CYSTEINE PROTEASES AND METHODS OF USE THEREOF” (priority 2020, published 2023)
